Laboratory results reported in patent publication US8080552B2, “Pyrimidyl derivatives as protein kinase inhibitors” (Hoffmann-LA Roche Inc., priority 2006, dated 2011).

Columns and labels:
[1] = system: VEGF-induced HUVEC cells; test: CellTiter-Glo assay in VEGF-induced HUVEC cells; assay type: cell-based; conditions: Homo sapiens; Table 2; VEGF-induced (20 ng/ml) HUVEC cells, 72 hours, cell viability (ATP luminescence); read-out: IC50 HCT 116
Experimental: CellTiter-Glo™ Assay in VEGF-Induced HUVEC Cells:
HUVEC-c (Human Umbilical Vein Endothelial Cells, from Promocell Cat-No. C-12200) cells were trypsinized, spinned down and plated in 384-well plates at 1500 cells per well in 60 μl endothelial basal medium (EBM-2 from Promocell, Cat-No. C-22211) with 0.5% Fetal Calf Serum (FCS, Sigma Cat-No. F4135 (FBS)). Cells were incubated overnight at 37° C., and the next day, test compounds (stock solution 140 μmol/l in medium with 4.2% dimethylsulfoxide (DMSO)) were added in 5 μl medium over a final concentration range of 10 μmol/l to 0.5 nmol/l and 0.3% DMSO. Compounds were tested in triplicates. After 2 hrs 5 μl VEGF (VEGF 165, R&D Systems, Cat-No. 293-VE-010, stock solution 280 ng/ml in medium) was added to a final concentration of 20 ng/ml. Cells were incubated for 72 hours at 37° C. in medium. Cell number was quantitated using CellTiter-Glo™ Luminescent Cell Viability Assay (from Promega) according to the instructions of the supplier. This assay measures the number of viable cells per well by measurement of luminescent signal based on amount of cellular ATP. IC50 are determined using a non-linear curve fit (XLfit software (ID Business Solution Ltd., Guilford, Surrey, UK)) (see also CellTiter-Glo™ assay in HCT 116 cells above).

[2] = system: HCT 116 cells; test: CellTiter-Glo assay in HCT 116 cells; assay type: cell-based; conditions: 120 h; HCT 116 human colon carcinoma cells, 5 days incubation, cell viability (ATP luminescence)
Text: CellTiter-Glo™ Assay in HCT 116 Cells:
The CellTiter-Glo™ Luminescent Cell Viability Assay (Promega) is a homogeneous method of determining the number of viable cells in culture based on quantitation of the ATP present, which signals the presence of metabolically active cells.
HCT 116 cells (human colon carcinoma, ATCC-No. CCl-247) were cultivated in RPMI 1640 medium with GlutaMAX™ I (Invitrogen, Cat-No. 61870-010), 5% Fetal Calf Serum (FCS, Sigma Cat-No. F4135 (FBS)); 100 Units/ml penicillin/100 μg/ml streptomycin (=Pen/Strep from Invitrogen Cat. No. 15140). For the assay the cells were seeded in 384 well plates, 1000 cells per well, in the same medium. The next day the test compounds were added in various concentrations ranging from 30 μM to 0.0015 μM (10 concentrations, 1:3 diluted). After 5 days the CellTiter-Glo™ assay was done according to the instructions of the manufacturer (CellTiter-Glo™ Luminescent Cell Viability Assay, from Promega). In brief: the cell-plate was equilibrated to room temperature for approximately 30 minutes and than the CellTiter-Glo™ reagent was added. The contents were carefully mixed for 15 minutes to induce cell lysis. After 45 minutes the luminescent signal was measured in Victor 2, (scanning multiwell spectrophotometer, Wallac).
• Medium: RPMI 1640 with GlutaMAX™ I (Invitrogen, Cat-Nr. 61870), 5% FCS (Sigma Cat.-No. F4135), Pen/Strep (Invitrogen, Cat No. 15140). • HCT116 (ATCC-No. CCl-247): 1000 cells in 60 μl per well of 384 well plate (Greiner 781098, μClear-plate white) • After seeding incubate plates 24 h at 37° C., 5% CO2 2nd. Day: Induction (Treatment with Compounds, 10 Concentrations):
In order to achieve a final concentration of 30 μM as highest concentration 3.5 μl of 10 mM compound stock solution were added directly to 163 μl media. Then step e) of the dilution procedure described below, was followed.

Row | SMILES | IC50 [1] [nM] | IC50 [2] [nM]
1 | O=C(Nc1ccc(Oc2ccnc(NCCCO)n2)c(Cl)c1)Nc1ccc(Cl)c(C(F)(F)F)c1 [Example 15, 1-(4-Chloro-3-trifluoromethyl-phenyl)-3-{3-chloro-4-[2-(3-hydroxy-propylamino)-pyrimidin-4-yloxy]-phenyl}-urea] | 5 to 750 | 
2 | O=C(Nc1ccc(Oc2ccnc(NCCCO)n2)cc1)Nc1cccc(OC(F)(F)F)c1 [Example 2, 1-{4-[2-(3-Hydroxy-propylamino)-pyrimidin-4-yloxy]-phenyl}-3-(3-trifluoromethoxy-phenyl)-urea] | 5 to 750 | 670
3 | O=C(Nc1ccc(Oc2ccnc(NCCCO)n2)cc1)Nc1ccc(OC(F)(F)F)cc1 [Example 3, 1-{4-[2-(3-Hydroxy-propylamino)-pyrimidin-4-yloxy]-phenyl}-3-(4-trifluoromethoxy-phenyl)-urea] | 5 to 750 | 300 to 10000
4 | CC(C)(C)c1cccc(NC(=O)Nc2ccc(Oc3ccnc(NCCCO)n3)cc2)c1 [Example 4, 1-(3-tert-Butyl-phenyl)-3-{4-[2-(3-Hydroxy-propylamino)-pyrimidin-4-yloxy]-phenyl}-urea] | 5 to 750 | 300 to 10000
5 | COc1ccc(C(F)(F)F)cc1NC(=O)Nc1ccc(Oc2ccnc(NCCCO)n2)cc1 [Example 1, 1-{4-[2-(3-Hydroxy-propylamino)-pyrimidin-4-yloxy]-phenyl}-3-(2-methoxy-5-trifluoromethyl-phenyl)-urea] | 67 | 
6 | O=C(Nc1ccc(Oc2ccnc(NCCCO)n2)c(F)c1)Nc1ccc(Cl)c(C(F)(F)F)c1 [Example 17, 1-(4-Chloro-3-trifluoromethyl-phenyl)-3-{3-fluoro-4-[2-(3-hydroxy-propylamino)-pyrimidin-4-yloxy]-phenyl}-urea] | 5 to 750 | 300 to 10000
7 | O=C(Nc1ccc(Oc2ccnc(NCCCO)n2)cc1)Nc1cccc(C(F)(F)F)c1 [Example 7, 1-{4-[2-(3-Hydroxy-propylamino)-pyrimidin-4-yloxy]-phenyl}-3-(3-trifluoromethyl-phenyl)-urea] | 5 to 750 | 300 to 10000
8 | O=C(Nc1ccc(Oc2cc(NCCO)ncn2)cc1)Nc1cccc(C(F)(F)F)c1 [Example 20, 1-{4-[6-(2-Hydroxy-ethylamino)-pyrimidin-4-yloxy]-phenyl}-3-(3-trifluoromethyl-phenyl)-urea] | 5 to 750 | 300 to 10000
9 | O=C(Nc1ccc(Oc2ccnc(NCCCO)n2)cc1)Nc1ccc2c(c1)OC(F)(F)O2 [Example 28, 1-(2,2-Difluoro-benzo[1,3]dioxol-5-yl)-3-{4-[2-(3-hydroxy-propylamino)-pyrimidin-4-yloxy]-phenyl}-urea] | 82 | 300 to 10000
10 | CC(C#N)c1cccc(NC(=O)Nc2ccc(Oc3ccnc(NCCCO)n3)cc2)c1 (stereo not drawn) [Example 26, 1-[3-(Cyano-methyl-methyl)-phenyl]-3-{4-[2-(3-hydroxy-propylamino)-pyrimidin-4-yloxy]-phenyl}-urea] | 5 to 750 | 300 to 10000
11 | CC1(C)CNc2cc(NC(=O)Nc3ccc(Oc4ccnc(NCCCO)n4)cc3)ccc21 [Example 29, 1-(3,3-Dimethyl-2,3-dihydro-1H-indol-6-yl)-3-{4-[2-(3-hydroxy-propylamino)-pyrimidin-4-yloxy]-phenyl}-urea] | 5 to 750 | 300 to 10000
12 | O=C(Nc1ccc(Cl)c(C(F)(F)F)c1)Nc1ccc(Oc2ccnc(NCCCO)n2)cc1F [Example 18, 1-(4-Chloro-3-trifluoromethyl-phenyl)-3-{2-fluoro-4-[2-(3-hydroxy-propylamino)-pyrimidin-4-yloxy]-phenyl}-urea] | 5 to 750 | 300 to 10000
13 | CC(C)(C)c1ccc(NC(=O)Nc2ccc(Oc3ccnc(NCCCO)n3)cc2)cc1 [Example 5, 1-(4-tert-Butyl-phenyl)-3-{4-[2-(3-Hydroxy-propylamino)-pyrimidin-4-yloxy]-phenyl}-urea] | 5 to 750 | 
14 | O=C(Nc1ccc(Oc2ccnc(NCCCO)n2)cc1)Nc1ccc(Cl)c(C(F)(F)F)c1 [Example 9, 1-(4-Chloro-3-trifluoromethylphenyl)-3-{4-[2-(3-Hydroxy-propylamino)-pyrimidin-4-yloxy]-phenyl}-urea] | 5 to 750 | 3990
15 | CC(O)CCNc1nccc(Oc2ccc(NC(=O)Nc3ccc(Cl)c(C(F)(F)F)c3)cc2)n1 (stereo not drawn) [Example 12, 1-(4-Chloro-3-trifluoromethylphenyl)-3-{4-[2-(3-hydroxy-butylamino)-pyrimidin-4-yloxy]-phenyl}-urea] | 5 to 750 | 300 to 10000
16 | O=C(Nc1ccc(Oc2cc(NCCCO)ncn2)cc1)Nc1cccc(C(F)(F)F)c1 [Example 21, 1-{4-[6-(3-Hydroxy-propylamino)-pyrimidin-4-yloxy]-phenyl}-3-(3-trifluoromethyl-phenyl)-urea] | 5 to 750 | 300 to 10000
17 | O=C(Nc1ccc(Oc2cc(NCCO)ncn2)cc1)Nc1ccc(Cl)c(C(F)(F)F)c1 [Example 22, 1-(4-Chloro-3-trifluoromethyl-phenyl)-3-{4-[6-(2-hydroxy-ethylamino)-pyrimidin-4-yloxy]-phenyl}-urea] | 5 to 750 | 300 to 10000
18 | O=C(Nc1ccc(Oc2ccnc(NCCCCO)n2)cc1)Nc1ccc(Cl)c(C(F)(F)F)c1 [Example 10, 1-(4-Chloro-3-trifluoromethylphenyl)-3-{4-[2-(4-hydroxy-butylamino)-pyrimidin-4-yloxy]-phenyl}-urea] | 5 to 750 | 300 to 10000
19 | O=C(Nc1ccc(Oc2ccnc(NCCCO)n2)cc1)Nc1cc(C(F)(F)F)ccc1Cl [Example 19, 1-(2-Chloro-5-trifluoromethyl-phenyl)-3-{4-[2-(3-hydroxy-propylamino)-pyrimidin-4-yloxy]-phenyl}-urea] | 5 to 750 | 
20 | CC(C)(C#N)c1ccc(NC(=O)Nc2ccc(Oc3ccnc(NCCCO)n3)cc2)cc1 [Example 24, 1-[4-(Cyano-dimethyl-methyl)-phenyl]-3-{4-[2-(3-Hydroxy-propylamino)-pyrimidin-4-yloxy]-phenyl}-urea] |  | 300 to 10000
21 | O=C(Nc1ccccc1)Nc1ccc(Oc2ccnc(NCCCO)n2)cc1 [Example 13, 1-{4-[2-(3-Hydroxy-propylamino)-pyrimidin-4-yloxy]-phenyl}-3-phenyl-urea] | 5 to 750 | 300 to 10000
22 | O=C(Nc1ccc(Oc2ccnc(NCCO)n2)cc1)Nc1ccc(Cl)c(C(F)(F)F)c1 [Example 11, 1-(4-Chloro-3-trifluoromethylphenyl)-3-{4-[2-(2-hydroxy-ethylamino)-pyrimidin-4-yloxy]-phenyl}-urea] |  | 300 to 10000
23 | O=C(Nc1ccc(Oc2cc(NCCCO)ncn2)cc1)Nc1ccc(Cl)c(C(F)(F)F)c1 [Example 23, 1-(4-Chloro-3-trifluoromethyl-phenyl)-3-{4-[6-(3-hydroxy-propylamino)-pyrimidin-4-yloxy]-phenyl}-urea] | 5 to 750 | 
24 | O=C(Nc1ccc(Oc2ccnc(NCCCO)n2)cc1)Nc1cc(C(F)(F)F)ccc1F [Example 8, 1-(2-Fluoro-5-trifluoromethyl-phenyl)-3-{4-[2-(3-Hydroxy-propylamino)-pyrimidin-4-yloxy]-phenyl}-urea] | 5 to 750 | 300 to 10000
25 | CC(C)(C#N)c1cccc(NC(=O)Nc2ccc(Oc3ccnc(NCCCO)n3)cc2)c1 [Example 25, 1-[3-(Cyano-dimethyl-methyl)-phenyl]-3-{4-[2-(3-hydroxy-propylamino)-pyrimidin-4-yloxy]-phenyl}-urea] | 5 to 750 | 300 to 10000
26 | O=C(Nc1ccc(Cl)cc1)Nc1ccc(Oc2ccnc(NCCCO)n2)cc1 [Example 6, 1-(4-Chloro-phenyl)-3-{4-[2-(3-hydroxy-propylamino)-pyrimidin-4-yloxy]-phenyl}-urea] | 257 | 300 to 10000
